The values that follow come from patent publication US20250051327A1, “MALT-1 MODULATORS” (EXSCIENTIA AI LIMITED, priority 2020, published 2025).

Test [1] relates to IL-2 secretion by human effector memory T cells (TEM). Description: Effector memory T cells IL-2 release assay. It counts as cell-based. To be noted: human CD4+ effector memory T cells, CD3/CD28 bead stimulation, 24 h, read-out: CD4TC IL2 IC50. A digest of the protocol:
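Human CD4+ effector memory T cells from healthy-donor buffy coats were stimulated with anti-CD3/CD28 Dynabeads and exposed to 10 semi-log compound doses (0.1% DMSO) for 24 h at 37 °C. Supernatant IL-2 was measured by HTRF, and IC50 came from a 4-parameter logistic fit to maximal IL-2. Viability was checked by flow cytometry.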

The target of test [2] is Recombinant human MALT-1 (amino acids 340-824) (Homo sapiens (Human), UniProt Q9UDY8). Description: MALT-1 inhibition assay (fluorogenic substrate Ac-LRSR-Rh110-DP). Format: biochemical. To be noted: recombinant human MALT-1, substrate Ac-LRSR-Rh110-DP. In outline:
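MALT-1 at 3 nM final was reacted with 10 μM Ac-LRSR-Rh110-DP, with substrate addition starting the reaction. Incubation ran 60 minutes at 25° C in the dark. Percent inhibition from fluorescence across doses was fitted to a 4-parameter logistic to give IC50.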

Where two headings read alike, the source gives them in different places.

Recombinant human MALT-1 (amino acids 340-824), sequence (Q9UDY8 340-824): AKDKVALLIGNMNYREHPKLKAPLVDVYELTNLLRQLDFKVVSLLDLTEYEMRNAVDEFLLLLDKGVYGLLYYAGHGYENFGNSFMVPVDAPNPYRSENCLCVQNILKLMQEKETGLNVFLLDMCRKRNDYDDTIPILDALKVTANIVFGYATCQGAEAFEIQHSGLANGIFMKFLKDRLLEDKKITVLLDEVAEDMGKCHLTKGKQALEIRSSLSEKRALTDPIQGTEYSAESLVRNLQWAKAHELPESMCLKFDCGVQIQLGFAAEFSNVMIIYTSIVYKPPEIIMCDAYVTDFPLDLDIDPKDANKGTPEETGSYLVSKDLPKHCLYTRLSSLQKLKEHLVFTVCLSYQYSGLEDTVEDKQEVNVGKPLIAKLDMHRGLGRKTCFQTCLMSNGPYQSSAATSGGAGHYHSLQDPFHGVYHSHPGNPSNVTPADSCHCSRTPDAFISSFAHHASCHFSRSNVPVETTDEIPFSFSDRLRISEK

For the compound `CN1C[C@@H](C(=O)N(C)[C@@H](c2ccc(N3CCCc4c3cnc3cc(Cl)nn43)cc2)C(F)(F)F)CCC1=O` (relative stereo) [CPD0073196, (3rel-S)-N-[(1S)-1-(4-{4-chloro-2,3,7,10-tetraazatricyclo[7.4.0.0^2,6]trideca-1(9),3,5,7-tetraen-10-yl}phenyl)-2,2,2-trifluoroethyl]-N,1-dimethyl-6-oxopiperidine-3-carboxamide], the values for the IC50 in test [1] (T-cell) and in test [2] were 122 nM and 80 nM, respectively.

As to `CN1C[C@@H](C(=O)N(C)[C@@H](c2ccc(N3CCCc4c3cnc3cc(Cl)nn43)cc2)C(F)(F)F)CC1=O` (relative stereo) [CPD0073557, (3rel-S)-N-[(1S)-1-(4-{4-chloro-2,3,7,10-tetraazatricyclo[7.4.0.0^2,6]trideca-1(9),3,5,7-tetraen-10-yl}phenyl)-2,2,2-trifluoroethyl]-N,1-dimethyl-5-oxopyrrolidine-3-carboxamide], the values for the IC50 in test [1] (T-cell) and in test [2] were 282 nM and 121 nM, respectively.

In the case of `COC(C)c1c(Nc2ccc([C@H](N(C)C(=O)C3CCS(=O)(=O)CC3)C(F)(F)F)cn2)cnc2ccc(Cl)nc12` (stereo in doubt) [CPD0019501, N-[(1S)-1-[6-({6-chloro-4-[(1 rel S)-1-methoxyethyl]-1,5-naphthyridin-3-yl}amino)pyridin-3-yl]-2,2,2-trifluoroethyl]-N-methyl-1,1-dioxo-1λ^6-thiane-4-carboxamide], the IC50 in test [1] came to 380 nM; in test [2], 348 nM.

For the compound `CN(C(=O)[C@H]1C[C@H](C(=O)O)C1)[C@@H](c1ccc(N2CCCc3c2cnc2cc(Cl)nn32)cc1)C(F)(F)F` [CPD0072439, (trans)-3-{[(1S)-1-(4-{4-chloro-2,3,7,10-tetraazatricyclo[7.4.0.0^2,6]trideca-1(9),3,5,7-tetraen-10-yl}phenyl)-2,2,2-trifluoroethyl](methyl)carbamoyl}cyclobutane-1-carboxylic acid], the IC50 in test [1] (T-cell) turned out to be 557 nM; in test [2] it was 35 nM.

For `COC[C@@]1(C)CCN(c2ccc([C@H](N(C)C(=O)[C@H]3CC[S@@](=N)(=O)CC3)C(F)(F)F)cc2)c2cnc3cc(Cl)nn3c21` (relative stereo) [CPD0073133, (1rel-s,4rel-s)-N-[(1S)-1-[4-[(13rel-S)-4-chloro-13-(methoxymethyl)-13-methyl-2,3,7,10-tetrazatricyclo[7.4.0.0^2,6]trideca-1(9),3,5,7-tetraen-10-yl]phenyl]-2,2,2-trifluoro-ethyl]-1-imino-N-methyl-1-oxo-1λ^6-thiane-4-carboxamide], the results for the IC50 in test [1] (T-cell) and in test [2] were 64 nM and 81 nM, respectively.

`CN(C(=O)[C@H]1CCCS(=O)(=O)C1)[C@@H](c1ccc(N2CCCc3c2cnc2cc(Cl)nn32)cc1)C(F)(F)F` [CPD0021809]: the values for the IC50 in test [1] (T-cell) and in test [2] were 143 nM and 154 nM, respectively.

For the compound `CN(C(=O)C1CCOCC1)[C@@H](c1ccc(N2CCCc3c2cnc2cc(Cl)nn32)cc1)C(F)(F)F` [CPD0021574, N-[(1S)-1-(4-{4-chloro-2,3,7,10-tetraazatricyclo[7.4.0.0^2,6]trideca-1(9),3,5,7-tetraen-10-yl}phenyl)-2,2,2-trifluoroethyl]-N-methyloxane-4-carboxamide], the IC50 was determined as 121 nM in test [1] (T-cell) and 123 nM in test [2].

As to `COC(C)c1c(Nc2ccc([C@H](N(C)C(=O)C3CCS(=O)(=O)CC3)C(F)(F)F)cc2)cnc2ccc(Cl)nc12` (stereo partly drawn) [CPD0019496, N-[(1S)-1-(4-{[6-chloro-4-(1-methoxyethyl)-1,5-naphthyridin-3-yl]amino}phenyl)-2,2,2-trifluoroethyl]-N-methyl-1,1-dioxo-1λ^6-thiane-4-carboxamide], the IC50 in test [1] (T-cell) worked out at 22 nM; in test [2], 112 nM.

Turning to `CN(C(=O)C12CN(C1)S(=O)(=O)C2)[C@@H](c1ccc(N2CCCc3c2cnc2cc(Cl)nn32)cc1)C(F)(F)F` [CPD0073087, N-[(1S)-1-(4-{4-chloro-2,3,7,10-tetraazatricyclo[7.4.0.0^2,6]trideca-1(9),3,5,7-tetraen-10-yl}phenyl)-2,2,2-trifluoroethyl]-N-methyl-2,2-dioxo-2λ^6-thia-1-azabicyclo[2.1.1]hexane-4-carboxamide], the concentration for half-maximal inhibition (IC50) in test [1] (T-cell) came to 103 nM; in test [2], 78 nM.

For `CN(C(=O)[C@@H]1CCC(=O)N1)[C@@H](c1ccc(N2CCCc3c2cnc2cc(Cl)nn32)cc1)C(F)(F)F` (relative stereo) [CPD0073566, (2rel-S)-N-[(1S)-1-(4-{4-chloro-2,3,7,10-tetraazatricyclo[7.4.0.0^2,6]trideca-1(9),3,5,7-tetraen-10-yl}phenyl)-2,2,2-trifluoroethyl]-N-methyl-5-oxopyrrolidine-2-carboxamide], the IC50 in test [1] (T-cell) came to 241 nM; in test [2], 76 nM.

Consider `CN(C(=O)[C@H]1CC[S@@](=N)(=O)CC1)[C@@H](c1ccc(N2CCC(C)(C)c3c2cnc2cc(Cl)nn32)cc1)C(F)(F)F` (relative stereo) [CPD0072784, (1rel-s,4rel-s)-N-[(1S)-1-(4-{4-chloro-13,13-dimethyl-2,3,7,10-tetraazatricyclo[7.4.0.0^2,6]trideca-1(9),3,5,7-tetraen-10-yl}phenyl)-2,2,2-trifluoroethyl]-1-imino-N-methyl-1-oxo-1λ^6-thiane-4-carboxamide], for which the IC50 in test [1] (T-cell) turned out to be 56 nM; in test [2], 74 nM.

For the compound `COc1ccc2ncc(Nc3ccc([C@H](N(C)C(=O)[C@H]4CC[S@](=N)(=O)CC4)C(F)(F)F)cc3)c([C@H](C)OC)c2n1` (stereo in doubt) [CPD0073130, (1 rel-r,4rel-r)-1-imino-N-methyl-1-oxo-N-[(1S)-2,2,2-trifluoro-1-[4-({6-methoxy-4-[(1 rel-S)-1-methoxyethyl]-1,5-naphthyridin-3-yl}amino)phenyl]ethyl]-1λ^6-thiane-4-carboxamide], the IC50 was found to be 24 nM in test [1] (T-cell) and 61 nM in test [2].

`CC(=O)N1CCC(C(=O)N(C)[C@@H](c2ccc(N3CC[C@@H](C)c4c3cnc3cc(Cl)nn43)cc2)C(F)(F)F)CC1` [CPD0074558]: the IC50 is 67 nM in test [1] (T-cell) and 74 nM in test [2].

Turning to `CN(C(=O)C1CCS(=O)(=O)CC1)[C@@H](c1ccc(N2CCCc3c2cnc2cc(Cl)nn32)cc1)C(F)(F)F` [CPD0019184, N-[(1S)-1-(4-{4-chloro-2,3,7,10-tetraazatricyclo[7.4.0.0^2,6]trideca-1(9),3,5,7-tetraen-10-yl}phenyl)-2,2,2-trifluoroethyl]-N-methyl-1,1-dioxo-1λ^6-thiane-4-carboxamide], the IC50 worked out at 68 nM in test [1] (T-cell) and 59 nM in test [2].

On to `COC[C@]1(C)CCN(c2ccc([C@H](N(C)C(=O)[C@H]3CC[S@+]([O-])CC3)C(F)(F)F)cc2)c2cnc3cc(Cl)nn3c21` (relative stereo) [CPD0073136, (1rel-r,4rel-r)-N-[(1S)-1-[4-[(13rel-R)-4-chloro-13-(methoxymethyl)-13-methyl-2,3,7,10-tetrazatricyclo[7.4.0.0^2,6]trideca-1(9),3,5,7-tetraen-10-yl]phenyl]-2,2,2-trifluoro-ethyl]-N-methyl-1-oxo-1λ^4-thiane-4-carboxamide], for which the IC50 in test [1] (T-cell) was 63 nM; in test [2], 138 nM.
